| Compound | melting point [°C] |
| --- | --- |
| Cc1cc(S(=O)(=O)CCC#N)ccc1NC(=O)Cc1ccc(C)c(Oc2cc(Cl)cc(C#N)c2)c1 [Compound I-137, 2-[3-(3-Chloro-5-cyano-phenoxy)-4-methyl-phenyl]-N-[4-(2-cyano-ethanesulfonyl)-2-methyl-phenyl]-acetamide] | 186.1 to 188 |
| CCCC(=O)N(C)S(=O)(=O)c1ccc(NC(=O)Cc2ccc(Cl)c(Oc3cc(Cl)cc(C#N)c3)c2F)c(Cl)c1 [Compound I-139, N-[4-(Butyryl-methyl-sulfamoyl)-2-chloro-phenyl]-2-[4-chloro-3-(3-chloro-5-cyano-phenoxy)-2-fluoro-phenyl]-acetamide] | 186.9 to 187.6 |
| Cc1cc(CC(=O)Nc2ccc(S(N)(=O)=O)cc2)cc(Oc2cc(Cl)cc(C#N)c2)c1 [Compound I-141, 2-[3-(3-Chloro-5-cyano-phenoxy)-5-methyl-phenyl]-N-(4-sulfamoyl-phenyl)-acetamide] | 183.9 to 185.2 |
| Cc1cc(CC(=O)Nc2ccc(S(N)(=O)=O)cc2C)cc(Oc2cc(Cl)cc(C#N)c2)c1 [Compound I-142, 2[3-(3-Chloro-5-cyano-phenoxy)-5-methyl-phenyl]-N-(2-methyl-4-sulfamoyl-phenyl)-acetamide] | 184.8 to 186 |
| Cc1cc(CC(=O)Nc2ccc(S(N)(=O)=O)cc2Cl)cc(Oc2cc(Cl)cc(C#N)c2)c1 [Compound I-143, 2-[3-(3-Chloro-5-cyano-phenoxy)-5-methyl-phenyl]-N-(2-chloro-4-sulfamoyl-phenyl)-acetamide] | 194.1 to 195.9 |
| N#Cc1cccc(Oc2cc(CC(=O)Nc3ccc(S(N)(=O)=O)cc3)cc3ccoc23)c1 [Compound I-144, 2-[7-(3-Cyano-phenoxy)-benzofuran-5-yl]-N-(4-sulfamoyl-phenyl)-acetamide] | 196.4 to 198.7 |
| Cc1cc(S(N)(=O)=O)ccc1NC(=O)Cc1cc(Oc2cccc(C#N)c2)c2occc2c1 [Compound I-145, 2-[7-(3-Cyano-phenoxy)-benzofuran-5-yl]-N-(2-methyl-4-sulfamoyl-phenyl)-acetamide] | 218.9 to 220 |
| Cc1cc(CC(=O)Nc2ccc(S(N)(=O)=O)cc2)cc(Oc2cc(C#N)ccc2Cl)c1 [Compound I-146, 2-[3-(2-Chloro-5-cyano-phenoxy)-5-methyl-phenyl]-N-(4-sulfamoyl-phenyl)-acetamide] | 235.9 to 236.7 |
| Cc1cc(CC(=O)Nc2ccc(S(N)(=O)=O)cc2C)cc(Oc2cc(C#N)ccc2Cl)c1 [Compound I-147, 2-[3-(2-Chloro-5-cyano-phenoxy)-5-methyl-phenyl]-N-(2-methyl-4-sulfamoyl-phenyl)-acetamide] | 200.3 to 201.1 |
| Cc1cc(CC(=O)Nc2ccc(S(N)(=O)=O)cc2Cl)cc(Oc2cc(C#N)ccc2Cl)c1 [Compound I-148, 2-[3-(2-Chloro-5-cyano-phenoxy)-5-methyl-phenyl]-N-(2-chloro-4-sulfamoyl-phenyl)-acetamide] | 212.9 to 214.4 |
| NS(=O)(=O)c1ccc(NC(=O)Cc2cc(Oc3cc(Cl)cc(Cl)c3)c3occc3c2)c(Cl)c1 [Compound I-149, N-(2-Chloro-4-sulfamoyl-phenyl)-2-[7-(3,5-dichloro-phenoxy)-benzofuran-5-yl]-acetamide] | 215.1 to 216.6 |
| Cc1cc(OC[C@@H](O)CO)ccc1NC(=O)Cc1ccc(C)c(Oc2cc(Cl)cc(C#N)c2)c1 [Compound I-150, 2-[3-(3-Chloro-5-cyano-phenoxy)-4-methyl-phenyl]-N-[4-((S)-2,3-dihydroxy-propoxy)-2-methyl-phenyl]-acetamide] | 137.5 to 138.4 |
| Cc1cc(OCC[C@@H](O)CO)ccc1NC(=O)Cc1ccc(C)c(Oc2cc(Cl)cc(C#N)c2)c1 [Compound I-151, 2-[3-(3-Chloro-5-cyano-phenoxy)-4-methyl-phenyl]-N-[4-((R)-3,4-dihydroxy-butoxy)-2-methyl-phenyl]-acetamide] | 104.9 to 106.4 |
| Cc1cc(S(=O)(=O)CC(=O)O)ccc1NC(=O)Cc1ccc(C)c(Oc2cc(Cl)cc(C#N)c2)c1 [Compound I-152, (4-{2-[3-(3-Chloro-5-cyano-phenoxy)-4-methyl-phenyl]-acetylamino}-3-methyl-benzenesulfonyl)-acetic acid] | 180.5 to 181.4 |
| Cc1cc(S(=O)(=O)CCN)ccc1NC(=O)Cc1ccc(C)c(Oc2cc(Cl)cc(C#N)c2)c1 [Compound I-154, N-[4-(2-Amino-ethanesulfonyl)-2-methyl-phenyl]-2-[3-(3-chloro-5-cyano-phenoxy)-4-methyl-phenyl]-acetamide] | 92.4 to 95.5 |
| Cc1cc(S(=O)(=O)CCCO)ccc1NC(=O)Cc1ccc(C)c(Oc2cc(Cl)cc(C#N)c2)c1 [Compound I-157, 2-[3-(3-Chloro-5-cyano-phenoxy)-4-methyl-phenyl]-N-[4-(3-hydroxy-propane-1-sulfonyl)-2-methyl-phenyl]-acetamide] | 78.9 to 79.5 |
| Cc1cc(N2CCCCS2(=O)=O)ccc1NC(=O)Cc1ccc(C)c(Oc2cc(Cl)cc(C#N)c2)c1 [Compound I-158, 2-[3-(3-Chloro-5-cyano-phenoxy)-4-methyl-phenyl]-N-[4-(1,1-dioxo-1λ^6-[1,2]thiazinan-2-yl)-2-methyl-phenyl]-acetamide] | 84.3 to 85.6 |

Now from value to compound:

| melting point [°C] | Compound |
| --- | --- |
| 62.3 to 64.1 | Cc1cc(C(=O)CN2CCN(C)CC2)ccc1NC(=O)Cc1ccc(C)c(Oc2cc(Cl)cc(C#N)c2)c1 [Compound I-159, 2-[3-(3-Chloro-5-cyano-phenoxy)-4-methyl-phenyl]-N-{2-methyl-4-[2-(4-methyl-piperazin-1-yl)-acetyl]-phenyl}-acetamide] |
| 181.3 to 182.1 | Cc1cc(N2CC[S+]([O-])CC2)ccc1NC(=O)Cc1ccc(C)c(Oc2cc(Cl)cc(C#N)c2)c1 [Compound I-160, 2-[3-(3-Chloro-5-cyano-phenoxy)-4-methyl-phenyl]-N-[2-methyl-4-(1-oxo-1λ^4-thiomorpholin-4-yl)-phenyl]-acetamide] |
| 64.8 to 65.4 | Cc1cc(N2CCS(=O)(=O)CC2)ccc1NC(=O)Cc1ccc(C)c(Oc2cc(Cl)cc(C#N)c2)c1 [Compound I-161, 2-[3-(3-Chloro-5-cyano-phenoxy)-4-methyl-phenyl]-N-[4-(1,1-dioxo-1λ^6-thiomorpholin-4-yl)-2-methyl-phenyl]-acetamide] |
| 198.2 to 200.6 | CCC(=O)N(C)S(=O)(=O)c1ccc(NC(=O)Cc2ccc(Cl)c(Oc3cc(Cl)cc(C#N)c3)c2F)c(Cl)c1 [Compound I-162, 2-[4-Chloro-3-(3-chloro-5-cyano-phenoxy)-2-fluoro-phenyl]-N-[2-chloro-4-(methyl-propionyl-sulfamoyl)-phenyl]-acetamide] |
| 199.1 to 200 | CNS(=O)(=O)c1ccc(NC(=O)Cc2ccc(Cl)c(Oc3cc(Cl)cc(C#N)c3)c2F)c(Cl)c1 [Compound I-168, 2-[4-Chloro-3-(3-chloro-5-cyano-phenoxy)-2-fluoro-phenyl]-N-(2-chloro-4-methylsulfamoyl-phenyl)-acetamide] |
| 182.5 to 184.6 | Cc1cc(N2CCCS2(=O)=O)ccc1NC(=O)Cc1ccc(C)c(Oc2cc(Cl)cc(C#N)c2)c1 [Compound I-170, 2-[3-(3-Chloro-5-cyano-phenoxy)-4-methyl-phenyl]-N-[4-(1,1-dioxo-1λ^6-isothiazolidin-2-yl)-2-methyl-phenyl]-acetamide] |
| 183.2 to 185.5 | COCC(=O)N(C)S(=O)(=O)c1ccc(NC(=O)Cc2ccc(Cl)c(Oc3cc(Cl)cc(C#N)c3)c2F)c(Cl)c1 [Compound I-171, 2-[4-Chloro-3-(3-chloro-5-cyano-phenoxy)-2-fluoro-phenyl]-N-{2-chloro-4-[(2-methoxy-acetyl)-methyl-sulfamoyl]-phenyl}-acetamide] |
| 199.3 to 203 | COCCC(=O)N(C)S(=O)(=O)c1ccc(NC(=O)Cc2ccc(Cl)c(Oc3cc(Cl)cc(C#N)c3)c2F)c(Cl)c1 [Compound I-172, 2-[4-Chloro-3-(3-chloro-5-cyano-phenoxy)-2-fluoro-phenyl]-N-{2-chloro-4-[(3-methoxy-propionyl)-methyl-sulfamoyl]-phenyl}-acetamide] |
| 182.5 to 183.9 | CCOC(=O)C(=O)Nc1ccc(NC(=O)Cc2ccc(C)c(Oc3cc(Cl)cc(C#N)c3)c2)c(C)c1 [Compound I-178, N-(4-{2-[3-(3-Chloro-5-cyano-phenoxy)-4-methyl-phenyl]-acetylamino}-3-methyl-phenyl)-oxalamic acid ethyl ester] |
| 229.7 to 231.3 | Cc1cc(CC(=O)Nc2ccc(S(N)(=O)=O)cc2)cc(Oc2cc(Cl)cc(C#N)c2)c1C [Compound I-182, 2-[3-(3-Chloro-5-cyano-phenoxy)-4,5-dimethyl-phenyl]-N-(4-sulfamoyl-phenyl)-acetamide] |
| 230.8 to 233.4 | Cc1cc(S(N)(=O)=O)ccc1NC(=O)Cc1cc(C)c(C)c(Oc2cc(Cl)cc(C#N)c2)c1 [Compound I-183, 2-[3-(3-Chloro-5-cyano-phenoxy)-4,5-dimethyl-phenyl]-N-(2-methyl-4-sulfamoyl-phenyl)-acetamide] |
| 224.3 to 225.7 | Cc1cc(CC(=O)Nc2ccc(S(N)(=O)=O)cc2Cl)cc(Oc2cc(Cl)cc(C#N)c2)c1C [Compound I-184, 2-[3-(3-Chloro-5-cyano-phenoxy)-4,5-dimethyl-phenyl]-N-(2-chloro-4-sulfamoyl-phenyl)-acetamide] |
| 246 to 250.6 | Cc1cc(S(N)(=O)=O)ccc1NC(=O)Cc1ccc(Cl)c(Oc2cc(Br)cc(C#N)c2)c1F [Compound I-185, 2-[3-(3-Bromo-5-cyano-phenoxy)-4-chloro-2-fluoro-phenyl]-N-(2-methyl-4-sulfamoyl-phenyl)-acetamide] |
| 170.1 to 173.2 | Cc1cc(S(N)(=O)=O)ccc1NC(=O)Cc1ccc(Cl)c(Oc2cc(C#N)cc(C#CCO)c2)c1F [Compound I-186, 2-{4-Chloro-3-[3-cyano-5-(3-hydroxy-prop-1-ynyl)-phenoxy]-2-fluoro-phenyl}-N-(2-methyl-4-sulfamoyl-phenyl)-acetamide] |
| 156.2 to 158.2 | Cc1cc(S(N)(=O)=O)ccc1NC(=O)Cc1ccc(Cl)c(Oc2cc(C#N)cc(C#CCN(C)C)c2)c1F [Compound I-187, 2-{4-Chloro-3-[3-cyano-5-(3-dimethylamino-prop-1-ynyl)-phenoxy]-2-fluoro-phenyl}-N-(2-methyl-4-sulfamoyl-phenyl)-acetamide] |

From patent US7166738B2, “Non-nucleoside reverse transcriptase inhibitors” (Roche Palo Alto LLC, priority 2004, dated 2007)
